# What was measured:
# mGluR5 receptor [1] = biological target: T1, mGluR5 receptor (Sus scrofa, UniProt I3LUI7); test: Inhibition of [^3H]-MPEP binding in the mGluR5 receptor binding assay (pig brain homogenate); details: 5 nM [^3H]-MPEP
# T1 construct: pig brain hemispheres without medulla, cerebellum and pons ... differential centrifugation at 900×g and 40,000×g
# Description: I. Method for Determining the Inhibition of [^3H]-MPEP Binding in the mGluR5 Receptor Binding Assay […]
# The batches are then filtered with the assistance of a Brandel Cell Harvester (Brandel, Robotic 9600 model) on Unifilter plates with glass filter mats (Perkin Elmer, order number 6005177) and then washed 3 times with buffer (as above) using 250 μl per sample. The filter plates are then dried for 60 min at 55° C. Then 30 μl of Ultima Gold™ scintillating material (Packard BioScience, order number 6013159) is added per well and after 3 hours the samples are measured using the β counter (Microbeta, Perkin Elmer). Nonspecific binding is determined by the addition of 10 μM MPEP (Tocris, order number 1212).
# rats = test: Formaldehyde test in rats (phase 2, chronic pain component); type: in vivo; details: rat
# Description: III. Formaldehyde Test in Rats: The formaldehyde test (Dubuisson, D. and Dennis, S. G., 1977, Pain, 4, 161-174) is a model of both acute and chronic pain. A biphasic nociceptive response is induced in freely mobile test animals by a single formaldehyde injection into the dorsal side of a hind paw, said response being detected by the observation of three clearly distinguishable behaviour patterns. The response is in two phases: phase 1=immediate response (duration up to 10 min; paw shaking, licking), phase 2=late response (after a resting phase; likewise paw shaking, licking; duration up to 60 min). The 1st phase reflects direct stimulation of the peripheral nocisensors with an elevated spinal nociceptive input or glutamate release (acute pain phase); the 2nd phase reflects spinal and peripheral hypersensitisation (chronic pain phase). In the investigations presented here, it was the chronic pain component (phase 2) which was evaluated. […] The specific behavioural changes, such as raising and shaking the paw, changes in weight bearing of the animal and biting and licking responses are observed and recorded over the observation period of 21 to 27 min after the formaldehyde injection. The various behaviours are summarised as a “pain rate” (PR), which is the calculated nociceptive response averaged over 3 min sub-intervals. […]
# mGluR5 receptor [2] = biological target: T2, mGluR5 receptor (Homo sapiens, UniProt P41594); test: Functional Ca^2+ influx assay in the mGluR5 receptor assay (CHO-hmGluR5 cells, DHPG 10 μM); type: cell-based; details: Ki=IC50/(1+(AGconc./EC50))
# T2 construct: host or cells: CHO cells (CHO-hmGluR5), incubated overnight with doxycycline
# T2 sequence (P41594 21-1212): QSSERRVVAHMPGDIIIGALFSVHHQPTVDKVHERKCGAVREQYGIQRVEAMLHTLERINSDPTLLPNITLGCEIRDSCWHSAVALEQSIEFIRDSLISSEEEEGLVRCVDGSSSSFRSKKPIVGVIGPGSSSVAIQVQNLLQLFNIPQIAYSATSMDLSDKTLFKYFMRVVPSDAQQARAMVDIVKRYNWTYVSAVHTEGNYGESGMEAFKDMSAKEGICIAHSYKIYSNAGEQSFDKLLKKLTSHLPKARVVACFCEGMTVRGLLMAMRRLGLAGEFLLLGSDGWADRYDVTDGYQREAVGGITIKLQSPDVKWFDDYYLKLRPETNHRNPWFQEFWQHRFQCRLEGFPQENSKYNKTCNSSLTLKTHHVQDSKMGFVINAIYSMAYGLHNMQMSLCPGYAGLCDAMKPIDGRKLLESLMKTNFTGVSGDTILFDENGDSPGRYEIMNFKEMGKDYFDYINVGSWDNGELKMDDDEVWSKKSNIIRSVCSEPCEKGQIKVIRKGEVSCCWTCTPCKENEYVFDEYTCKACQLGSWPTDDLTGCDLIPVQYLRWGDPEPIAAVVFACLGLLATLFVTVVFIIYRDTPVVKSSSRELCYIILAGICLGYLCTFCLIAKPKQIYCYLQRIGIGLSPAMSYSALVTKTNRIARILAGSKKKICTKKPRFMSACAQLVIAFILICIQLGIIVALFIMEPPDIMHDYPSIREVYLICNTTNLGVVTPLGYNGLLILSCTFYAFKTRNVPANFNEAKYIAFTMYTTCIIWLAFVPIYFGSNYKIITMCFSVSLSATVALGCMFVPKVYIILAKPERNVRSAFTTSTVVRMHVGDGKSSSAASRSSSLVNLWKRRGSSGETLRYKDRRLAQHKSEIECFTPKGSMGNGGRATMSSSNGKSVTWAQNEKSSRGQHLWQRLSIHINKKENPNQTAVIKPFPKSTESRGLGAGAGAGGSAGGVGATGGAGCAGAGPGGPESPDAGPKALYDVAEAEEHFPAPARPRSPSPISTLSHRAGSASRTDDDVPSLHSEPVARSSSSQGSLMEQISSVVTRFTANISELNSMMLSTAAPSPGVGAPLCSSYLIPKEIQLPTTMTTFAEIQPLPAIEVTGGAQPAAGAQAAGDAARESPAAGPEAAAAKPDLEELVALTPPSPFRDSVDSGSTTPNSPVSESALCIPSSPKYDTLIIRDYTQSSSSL
# Excerpt: II. Method for Determining Ca^2+ Influx in the mGluR5 Receptor Assay
# […] According to this assay, intracellular Ca^2+ release is quantified after activation of the mGluR5 receptor with the assistance of a Ca^2+-sensitive dye (type Fluo-4, Molecular Probes Europe BV, Leiden, Netherlands) in a FlexStation (Molecular Devices, Sunnyvale, USA).
# Description of the Functional Ca^2+ Influx Assay
# 20,000 CHO-hmGluR5 cells/well (Euroscreen, Gosselies, Belgium) are pipetted out into 96 well plates (BD Biosciences, Heidelberg, Germany, Ref. 356640, clear bottom, 96 well, poly-D-lysine) and incubated overnight in HBSS buffer (Gibco No. 14025-050) with the following additives: 10% FCS (GIBCO, 10270-106) and doxycycline (BD Biosciences Clontech 631311 600 ng/ml).
# For the purpose of functional investigation, the cells were loaded with 2 μM Fluo-4 and 0.01 vol. % Pluronic F127 (Molecular Probes Europe BV, Leiden, Netherlands) in HBSS buffer (Hank's buffered saline solution, Gibco Invitrogen GmbH, Karlsruhe, Germany) with Probenicid (Sigma P8761, 0.69 mg/ml) for 30 min at 37° C.
# The cells are then washed 3 times with washing buffer (HBSS buffer, Gibco No. 14025-050, with Probenicid (Sigma P8761, 0.69 mg/ml) and then resuspended with the same buffer to make up to 100 μl. After 15 min, the plates are transferred for determination of Ca^2+ measurements in the presence of DHPG ((S)-3,5-dihydroxyphenylglycine, Tocris Biotrend Chemikalien GmbH, Cologne, Germany, final DHPG concentration: 10 μM) and in the presence or absence of test substances into a FLuorometric Imaging Plate Reader (FLIPR, Molecular Devices, Sunnyvale, Calif.).
# Ca^2+-dependent fluorescence is measured before and after addition of test substances. Quantification proceeds by measuring the highest fluorescence intensity over time.
# After recording a fluorescence baseline for 10 s, 50 μl of test substance solution (various test substance concentrations in HBSS buffer with 1% DMSO and 0.02% Tween 20, Sigma) are added and the fluorescence signal is measured for 6 min. Then, 50 μl of DHPG solution ((S)-3,5-dihydroxyphenylglycine, Tocris Biotrend Chemikalien GmbH, Cologne, Germany, final DHPG concentration: 10 μM) are added and Ca^2+ influx is simultaneously measured for 60 s. The final DMSO concentration amounts to 0.25% and the final Tween 20 content amounts to 0.005%. The data are analysed with Microsoft Excel and GraphPad Prism. The dose-response curves are calculated with non-linear regression and IC50 values are determined. Each data point is determined in triplicate and IC50 values are averaged from a minimum of 2 independent measurements.
# Ki values are calculated using the following formula: Ki=IC50/(1+(AGconc./EC50)).
# AGconc.=10 μM; EC50 corresponds to the DHPG concentration which is necessary for the semimaximal influx of Ca^2+.
# T1 sequence (I3LUI7 1-1212): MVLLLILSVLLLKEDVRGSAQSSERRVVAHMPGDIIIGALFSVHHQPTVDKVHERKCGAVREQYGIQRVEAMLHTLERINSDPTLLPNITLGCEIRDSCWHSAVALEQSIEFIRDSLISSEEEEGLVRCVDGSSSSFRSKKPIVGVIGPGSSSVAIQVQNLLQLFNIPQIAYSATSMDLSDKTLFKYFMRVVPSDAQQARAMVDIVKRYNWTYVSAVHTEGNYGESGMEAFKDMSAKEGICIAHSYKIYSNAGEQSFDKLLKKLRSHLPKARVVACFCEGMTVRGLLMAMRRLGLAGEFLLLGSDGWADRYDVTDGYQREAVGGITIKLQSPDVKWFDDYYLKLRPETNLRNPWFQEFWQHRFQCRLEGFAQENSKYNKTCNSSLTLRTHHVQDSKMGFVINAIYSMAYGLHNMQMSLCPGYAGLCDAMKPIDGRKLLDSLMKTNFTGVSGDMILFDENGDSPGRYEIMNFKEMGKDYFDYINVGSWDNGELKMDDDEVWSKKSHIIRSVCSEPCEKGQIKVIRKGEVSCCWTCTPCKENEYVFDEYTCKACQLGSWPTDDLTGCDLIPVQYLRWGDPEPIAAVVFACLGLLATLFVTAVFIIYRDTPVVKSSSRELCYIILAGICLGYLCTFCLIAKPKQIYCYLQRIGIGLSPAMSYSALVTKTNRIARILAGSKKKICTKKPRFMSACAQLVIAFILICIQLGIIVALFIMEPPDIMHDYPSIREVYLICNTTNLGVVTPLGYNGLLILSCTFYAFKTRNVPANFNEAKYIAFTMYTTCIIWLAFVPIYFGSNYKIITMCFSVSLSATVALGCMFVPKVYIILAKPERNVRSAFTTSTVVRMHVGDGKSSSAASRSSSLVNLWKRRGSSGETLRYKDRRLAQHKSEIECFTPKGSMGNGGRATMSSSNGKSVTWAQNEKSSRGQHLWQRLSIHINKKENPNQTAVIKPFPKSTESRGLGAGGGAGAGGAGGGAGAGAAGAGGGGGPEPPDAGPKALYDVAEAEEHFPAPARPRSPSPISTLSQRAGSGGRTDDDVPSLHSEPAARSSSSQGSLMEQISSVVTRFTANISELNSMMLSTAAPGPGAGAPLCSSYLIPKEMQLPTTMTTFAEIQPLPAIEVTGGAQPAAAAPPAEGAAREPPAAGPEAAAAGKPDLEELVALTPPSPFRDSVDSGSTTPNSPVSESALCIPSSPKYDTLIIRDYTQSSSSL
IC50 (mGluR5 receptor [1]) [nM],Ki (mGluR5 receptor [2]) [nM],Structure (SMILES),"ED50 (rats; iv, i.v. administration) [mg/kg]",inhibition in the formaldehyde test (rats; oral administration of 10 mg/kg) [%]
5.6,,"CN(CCNC(=O)C#Cc1cccc(Cl)c1)c1nccs1.Cl [Example 23, N-(2-(Methyl(thiazol-2-yl)amino)ethyl)-3-(3-chlorophenyl)-propiolamide hydrochloride]",1,38
13,10,"CN(CCNC(=O)C#Cc1cccc(Cl)c1)c1nc(Br)cs1 [Example 33, N-(2-((4-bromothiazol-2-yl)(methyl)amino)ethyl)-3-(3-chlorophenyl)propiolamide]",,
20,4.9,"CN(CCN(C)c1nccs1)C(=O)C#Cc1cccc(Cl)c1 [Example 18, N-Methyl-N-(2-(methyl(thiazol-2-yl)amino)ethyl)-3-(3-chlorophenyl)-propiolamide]",,
2.2,6.5,"CN(c1nccs1)C1CN(C(=O)C#Cc2cccc(Cl)c2)C1 [Example 35, 1-(3-(3-Chlorophenyl)propioloyl)-3-(methyl(thiazol-2-yl)amino)azetidine]",,
38,1,"CN(CCNC(=O)C#Cc1ccccc1)c1nccs1 [Example 9, N-(2-(methyl(thiazol-2-yl)amino)ethyl)-3-phenylpropiolamide]",,
26,4.8,"Cc1cccc(C#CC(=O)N(C)CCN(C)c2nccs2)c1 [Example 7, N-methyl-N-(2-(methyl(thiazol-2-yl)amino)ethyl)-3-(3-methylphenyl)-propiolamide]",,
86,3.6,"CCOC(=O)c1csc(N(C)CCNC(=O)C#Cc2cccc(Cl)c2)n1 [Example 26, N-(2-(methyl-(4-ethoxycarbonylthiazol-2-yl)amino)ethyl)-3-(3-chlorophenyl)-propiolamide]",,
57,5.2,"CN(CCN(C)c1nccs1)C(=O)C#Cc1ccccc1 [Example 4, N-Methyl-N-(2-(methyl(thiazol-2-yl)amino)ethyl)-3-phenylpropiolamide]",,
1.9,0.4,"CN(CCNC(=O)C#Cc1cccc(Cl)c1)c1nccs1 [Example 19, N-(2-(Methyl(thiazol-2-yl)amino)ethyl)-3-(3-chlorophenyl)-propiolamide]",,

# — patent publication US7871999B2, “Substituted thiazoles and their use for producing drugs” (Gruenenthal GmbH, priority 2005, dated 2011)
